The record followed here is patent US20190098891A1, “Compositions and Methods for Biopreservation” (Augusta University Research Institute, Inc., priority 2017, published 2019).

The test system of this experiment is mouse M II oocytes. The experiment can be described thus: Post-rehydration survival of mouse M II oocytes after fast or slow desiccation. Format: cell-based. From the text:
A phosphate-buffered saline (PBS) containing 0.4% bovine serum albumin (BSA) was used as a starting desiccation medium based on its simple composition that was preferable to not complicate the experimental outcome due to components of a complex desiccation medium. Further, the objective of these experiments was to test the effect of the desiccation duration without bringing specimen into a glassy state.
Slow and fast desiccation are can be achieved by adjusting several variables (e.g., temperature and flow rate of dry nitrogen gas, temperature of stage warmer, droplet size, etc.). Slow and fast desiccation of M II oocytes were achieved by changing the flow rate of dry nitrogen gas using a flowmeter (Gilmont Instruments) while performing the experiments at ambient temperature.
The fast protocol required approximately 9 minutes to desiccate a sample to a residual moisture content of 5% while the same residual moisture content was obtained in ca. 20 minutes in the case of slow desiccation. […]
The residual moisture content (% RM) of samples was determined gravimetrically using the following formula: […]

As to `OC[C@H]1O[C@H](O[C@H]2O[C@H](CO)[C@@H](O)[C@H](O)[C@H]2O)[C@H](O)[C@@H](O)[C@@H]1O` [trehalose], the desiccation tolerance entry was “improves the desiccation tolerance”.
